Columns and labels:
[1] = tested on: glycosaminoglycan synthesis; test: Glycosaminoglycan synthesis; type: cell-based; settings: positive control, concentration not given
[2] = tested on: procollagen I; test: Procollagen I production by fibroblasts (slot blot); type: cell-based, human; settings: positive control, head says (0.01%)
Method: This example measured production of procollagen I by fibroblasts in response to treatment with gum mastic in solvent solutions, as well as control solutions.
Gum mastic solubilized in ethanol solvent (“gum mastic”), and obtained from Sigma were tested.
Neonatal human dermal fibroblasts were purchased from Clonetics Corp., San Diego, Calif. All materials for cell culture were purchased from Life Technologies, NY and used in passages 5-10. Cells were seeded at a density of approximately 7,500/well in the inner 48 wells of a 96-well plate in a medium containing DMEM (Dulbecco's Modified Eagle's Medium), high-glucose supplemented with 2 mM L-glutamine, 10% fetal bovine serum, and antibiotic and antimycotic solutions). Cells were then grown to confluence for 2 days. At confluence, the medium was removed and cells were washed with serum-free DMEM, and each well dosed with 200 μl of a solution of gum mastic in serum-free DMEM. Each dosing was replicated in the total of six wells. […]
The membrane was stained until color developed and the reaction stopped with 2 washes for 10 minutes in tap water. […] Blot was scanned on Bio-Rad GS-700 Image Analysis densitometer and volume (OD*mm^2) of color/slot determined using molecular analysis software. Fold increase was calculated as a ratio of densitometer reading for cells treated with a gum mastic concentration over control.

[3] = tested on: human sebocytes; test: Inhibition of sebocyte lipogenesis (14C-acetate incorporation); type: cell-based; settings: 0.00035%; 14C-acetate label in sebocytes, 20 h + 4 h incubation
Method: Secondary cultures of human sebocytes obtained from an adult […] were grown in 48-well tissue culture plates (Costar Corp.; Cambridge, Mass.) until confluent. Sebocyte growth medium consisted of Clonetics Keratinocyte Basal Medium (KBM) supplemented with 14 μg/ml bovine pituitary extract, 0.4 μg/ml hydrocortisone, 5 μg/ml insulin, 10 ng/ml epidermal growth factor, 1.2×10^−10 M cholera toxin, 100 units/ml penicillin, and 100 μg/ml streptomycin. All cultures were incubated at 37° C. in the presence of 7.5% CO2. Medium was changed three times per week.
On the day of experimentation, the growth medium was removed and the sebocytes washed three times with sterile Dulbecco's Modified Eagle Medium (DMEM; phenol red free). Fresh DMEM was added to each sample (triplicates) with 5 μL of gum mastic solubilized in ethanol. Controls consisted of addition of ethanol alone to phenol red. Each plate was returned to the incubator for 20 hours followed by the addition of ^14C-acetate buffer (5 mM final concentration, 56 mCi/mmol specific activity). […] Radioactive label remaining in the sebocytes was harvested and counted using a Beckman scintillation counter. […]
Controls consisted of ethanol alone and phenol red, which has estrogen-like activity. Statistical significance was calculated using the student's T-test.

TGF-b was tested. Which “Fold increase over control” value [1] did it give?
The value was 1.4 fold.

What about the “Average OD Reading” value ([1]; control 4531.8) of the same compound?
Its value is 6382.3.

What about the “Fold increase over control” value [2] of the same compound?
Its value is 1.4 fold.

And the “Average OD Reading” value ([2]; densitometer volume OD*mm^2, control 5400.5)?
The value was 7499.8.

`O=S1(=O)OC(c2ccc(O)cc2)(c2ccc(O)cc2)c2ccccc21` [Phenol Red] was tested. Which “% Reduction” value [3] did it give?
Its value is 29.1%.
